For 11 molecules, EC50 results are on record in patent US20230391758A1, “MODIFIED BENZOFURAN-CARBOXAMIDES AS GLUCOSYLCERAMIDE SYNTHASE INHIBITORS” (MERCK SHARP & DOHME CORP., priority 2020, published 2023).

This test concerns the target GCS enzyme (glucosylceramide synthase) contained within Golgi preparations isolated from human A375 malignant melanoma skin cells (Homo sapiens (Human), UniProt Q16739). In words: UDP-Glo glucosylceramide synthase biochemical assay. As to conditions: 1.5 μg crude golgi preparation from A375 cells; C6 ceramide and UDP-glucose at 2×Km; 20 h incubation at room temperature; UDP detected by luminescence. The text has this:
UDP-Glo™ Glucosylceramide Synthase Biochemical Assay
A UDP-Glo™ glucosylceramide synthase biochemical assay was utilized to evaluate the effect of test compounds on the activity of endogenous levels of GCS enzyme contained within Golgi preparations isolated from human A375 malignant melanoma skin cells. The UDP-Glo™ glucosylceramide synthase assay uses UDP-Glucose as a nucleotide-glycosyl donor and ceramide as substrate acceptor molecules. In the reaction, glucosylceramide synthase (GCS) transfers glucose from UDP-Glucose to ceramide. Glucosylceramide and UDP are released as products.
Using Promega's UDP-Glo™ Glycosyltransferase assay kit (Promega Corporation, Madison, WI, USA (Promega)), GCS activity was indirectly measured by detecting the amount of UDP produced. An aliquot of GCS enzyme (1.5 μg crude golgi preparation, total protein) and titrated test compound were aliquoted to each well and incubated for 30 minutes at room temperature. Substrate mixture was prepared by mixing C6 ceramide (Avanti Polar Lipids, Alabaster, AL USA (Avanti)) (micelles prepared at 0.6 mM in 0.6 mM DOPC) and UDP-glucose (20 μ.M; Promega), at concentrations equivalent to 2×Km, in assay buffer (25 mM HEPES (pH 7.5), 50 mM KCl, 5 mM MgCl2). An equivalent volume of substrate mixture was then added to each well. Following a 20 h incubation at room temperature to allow for GCS turnover of substrate, an equal volume of UDP detection reagent (Promega) was added to each well and incubated for an additional 75 minutes at room temperature to simultaneously convert the accumulated UDP product into ATP and generate light in a luciferase reaction. The generated light was detected using a luminometer. […] luminescence values (RLUs) were normalized to mean “min” and “max” effects, as determined on each plate. “Min” was defined as the mean of the values of the wells treated with vehicle (DMSO) and which represent 0% inhibition; “max” was defined as the mean of the values of the wells treated with a reference inhibitor and which represent the 100% effect. Values for % Emax and EC50 were determined by best-fitting the normalized data to a curve in Activity Base along a four-parameter logistic nonlinear regression (4PL) model (based on the Levenberg-Marquardt algorithm and defined by the equation below): […]
where: n is 4PMin (bottom of the curve); m is 4PMax (top of the curve); i is IP (inflection point of curve); and p is slope. See Levenberg, K., “A Method for the Solution of Certain Problems in Least Squares”, Quart. Appl. Math. 2, (1944), pp 164-168 and Marquardt, D., “An Algorithm for Least Squares Estimation on Nonlinear Parameters”, SIAM J. Appl. Math. 11, (1963) pp 431-441.

Sequence of GCS enzyme (glucosylceramide synthase) contained within Golgi preparations isolated from human A375 malignant melanoma skin cells (Q16739 whole entry): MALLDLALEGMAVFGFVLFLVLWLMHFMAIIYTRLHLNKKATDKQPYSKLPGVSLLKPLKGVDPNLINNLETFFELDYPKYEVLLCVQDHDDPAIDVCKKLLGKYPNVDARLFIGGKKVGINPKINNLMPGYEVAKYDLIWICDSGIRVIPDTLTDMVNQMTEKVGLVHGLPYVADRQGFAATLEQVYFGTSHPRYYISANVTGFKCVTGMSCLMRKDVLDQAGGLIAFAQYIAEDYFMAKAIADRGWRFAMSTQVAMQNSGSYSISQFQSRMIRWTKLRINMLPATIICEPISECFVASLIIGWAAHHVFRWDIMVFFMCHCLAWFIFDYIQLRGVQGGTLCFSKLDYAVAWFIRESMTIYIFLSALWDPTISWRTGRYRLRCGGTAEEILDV

Usually EC50 stands for the concentration at which the effect is half-maximal. Molecule `CC(C)Oc1ccc(C#N)cc1-c1cc(F)cc2cc(C(=O)N[C@H]3C[C@@H](O)C3)oc12` [Compound 26, Cis-7-(5-cyano-2-isopropoxy-phenyl)-5-fluoro-N-(3-hydroxycyclobutyl) benzofuran-2-carboxamide] displayed an EC50 of 0.1 nM. This counts as sub-nanomolar.

Molecule `C[C@]1(NC(=O)c2cc3cc(F)cc(-c4ccccc4OCC(F)(F)F)c3o2)CC[C@H](O)CC1` [Compound 27, Cis or trans-5-fluoro-N-(4-hydroxy-1-methyl-cyclohexyl)-7-[2-(2,2,2-trifluoroethoxy)phenyl] benzofuran-2-carboxamide] yielded an EC50 of 0.24 nM. Compared with the last molecule, the EC50 is about 2.4-fold higher.

As to `COc1ccc(Cl)cc1-c1cc(F)cc2cc(C(=O)N[C@H]3C[C@@H](CO)C3)oc12` [Compound 28, Cis-7-(5-chloro-2-methoxy-phenyl)-5-fluoro-N-[3-(hydroxymethyl)cyclobutyl]be nzofuran-2-carboxamide], the EC50 came out at 0.6 nM.

Turning to `CC(C)Oc1ccc(C#N)cc1-c1cc(F)cc2cc(C(=O)NC(C)(C)CO)oc12` [Compound 29, 7-(5-cyano-2-isopropoxy-phenyl)-5-fluoro-N-(2-hydroxy-1,1-dimethyl-ethyl)benzofuran-2-carboxamide], the EC50 was 0.82 nM.

`COc1ccc(F)c(F)c1-c1cccc2cc(C(=O)N[C@@H]3CC[C@H](O)C3)oc12` [Compound 30, 7-(2,3-difluoro-6-methoxy-phenyl)-N-[(1R,3S)-3-hydroxycyclopentyl] benzofuran-2-carboxamide] displayed an EC50 of 3.4 nM.

`COc1cc(-c2ccccc2OCC(F)(F)F)c2oc(C(=O)NC3CCC(CO)CC3)cc2c1` (centres unmarked) [Compound 31, N-[4-(hydroxymethyl)cyclohexyl]-5-methoxy-7-[2-(2,2,2-trifluoroethoxy)phenyl] benzofuran-2-carboxamide]: the EC50 worked out at 4.1 nM.

For `N#Cc1ccc(F)c(-c2cccc3cc(C(=O)N[C@@H]4CC[C@H](O)C4)oc23)c1` [Compound 32, 7-(5-cyano-2-fluoro-phenyl)-N-[(1R,3S)-3-hydroxycyclopentyl] benzofuran-2-carboxamide], the EC50 came to 5 nM.

The molecule `CCOc1ccc(F)cc1-c1cccc2cc(C(=O)N[C@@H]3CC[C@H](O)C3)oc12` [Compound 33, 7-(2-ethoxy-5-fluoro-phenyl)-N-[(1R,3S)-3-hydroxycyclopentyl] benzofuran-2-carboxamide] displayed an EC50 of 6.5 nM.

Regarding `O=C(N[C@H]1CC[C@H](O)CC1)c1cc2cccc(-c3ccccc3OCC(F)(F)F)c2o1` [Compound 34, Trans-N-(4-hydroxycyclohexyl)-7-[2-(2,2,2-trifluoroethoxy)phenyl] benzofuran-2-carboxamide], it took 34 nM to reach a half-maximal effect (EC50). This EC50 lies about 5.2-fold higher than the previous one.

The molecule `COCCOc1ccccc1-c1cccc2cc(C(=O)Nc3cccnc3)oc12` [Compound 35, 7-[2-(2-methoxyethoxy)phenyl]-N-(3-pyridyl)benzofuran-2-carboxamide] registered an EC50 of 94 nM. Against the preceding molecule, the EC50 is about 2.8-fold higher.

Take `COc1ncc(C#N)cc1-c1cccc2cc(C(=O)NC34CCC(O)(CC3)C4)oc12` [Compound 38, 7-(5-cyano-2-methoxypyridin-3-yl)-N-(4-hydroxybicyclo[2.2.1]heptan-1-yl)benzofuran-2-carboxamide]: a half-maximal effect (EC50) was put at 0.79 nM.
